Measured values: US9492493B2, “Softgel of NLKJ for treating prostate diseases” (priority 2003, dated 2016)

Tests used:
[1] = test system: Human prostate cancer (PC-3M); experiment: Inhibition of NLKJ softgels on the growth of human prostate cancer in an animal model (Experiment Example 1); format: in vivo; conditions: 100 mg/kg, ip × 3 (d 1, 5, 9); 21th day after inoculation
Description: Inhibition of NLKJ Softgels on the Growth of Human Prostate Cancer in an Animal Model
NLKJ softgels (NLKJ for injection), Batch No. 20010412;
Kanglaite Injection (Product of Zhejiang Kanglaite Pharmaceutical Co. LTD, containing NLKJ 10 g/100 ml), Batch No. 0011281-1.
Grafting Tumor: Human prostate cancer (PC-3M), subcultured by Pharmacological Department, Shanghai Institute of Pharmaceutical Industry.
1) Control Group (Normal saline);
2) NLKJ softgel (5 ml/kg, p.o.×10 d);
3) NLKJ softgel (10 ml/kg, p.o.×10 d);
4) Kanglaite Injection (25 ml/kg, i.v.×10 d);
5) Cyclophamide (CTX) (100 mg/kg, ip.×3 (d1, d5, d9)).
(§1) The treatment started from the second day after inoculation. […] The weights of tumors were compared among the groups. The result was judged based on the formula: […]
IR: Inhibition Rate of Tumor; Xcon: Average weight of tumors of the control group; Xtreat: Average weight of tumors of the treatment group.

[2] = Body weight of tumor-bearing nude mice (Experiment Example 1); format: in vivo, BALB/C nude mice; conditions: 100 mg/kg, ip × 3 (d 1, 5, 9)
Text: as §1

[3] = test system: Human prostate cancer (PC-3M); experiment: Inhibition of NLKJ softgels in combination with Lupron on the growth of human prostate cancer in animal models (Experiment Example 2); format: in vivo; conditions: sc × 1, 21th day after inoculation
Text: Inhibition of NLKJ Softgels in Combination with Lupron on the Growth of Human Prostate Cancer in Animal Models […] for injection), Batch No. 011209; Lupron (Takeda Chemical Industries, Ltd., Osaka, Japan 541), Batch No. 47978 AP. […] Grafting Tumor: Human prostate cancer (PC-3M), subcultured by Pharmacological Department, Shanghai Institute of Pharmaceutical Industry. […] The weights of tumors were compared among the groups.

Compound | Inhibition Rate(%) [1] [%] | Tumor Weight(g) (x ± SD) [1] | Body weight (g) Beg ([2]; beginning) [g] | Body weight (g) End ([2]; end) [g] | Inhibition Rate(%) ([3]; 0.75 mg/kg) | Tumor Weight(g) (x ± SD) ([3]; 0.75 mg/kg) | Inhibition Rate(%) ([3]; 1.50 mg/kg) | Tumor Weight(g) (x ± SD) ([3]; 1.50 mg/kg)
O=P1(N(CCCl)CCCl)NCCCO1 (centres unmarked) [CTX, Cyclophamide] | 92.47 | 0.12 ± 0.04 | 17.0 | 17.8 |  |  |  | 
CCNC(=O)[C@@H]1CCCN1C(=O)[C@H](CCCNC(=N)N)NC(=O)[C@H](CC(C)C)NC(=O)[C@@H](CC(C)C)NC(=O)[C@H](Cc1ccc(O)cc1)NC(=O)[C@H](CO)NC(=O)[C@H](Cc1c[nH]c2ccccc12)NC(=O)[C@H](Cc1c[nH]cn1)NC(=O)[C@@H]1CCC(=O)N1 [Lupron, leuprolide acetate] |  |  |  |  | 37.08 | 0.93 ± 0.23 | 48.31 | 0.77 ± 0.14
